Laboratory results as given in paper PMC10436550, “Subacute toxicity evaluations of LPM3480392 in rats, a full µ-opioid receptor biased agonist” (Frontiers in Pharmacology, 2023).

Test system: Sprague Dawley (SD) rats
Test: Organ weight and ratios, 4-week subacute toxicity study
Type: in vivo, rat
Conditions: male rats
Method: Complete gross necropsies were conducted on all surviving animals at the end of treatment (the day after the last dosing) and recovery periods. The following selected organs were weighed and evaluated in terms of organ/body or organ/brain weight ratios: brain, kidneys, adrenals, testes, ovaries, uterus, epididymides, thymus, spleen, heart and liver. Paired organs were weighed together. Organ-to-body weight ratio = Organ weight(g)/Body weight(g) × 100%, and Organ-to-brain weight ratio = Organ weight(g)/Brain weight(g) × 100%.

[1] = 0.6 mg/kg/day, End of recovery phase
[2] = 1.2 mg/kg/day, End of dosing phase
[3] = 1.2 mg/kg/day, End of recovery phase
[4] = 2.4 mg/kg/day, End of dosing phase
[5] = 2.4 mg/kg/day, End of recovery phase

Fc1ccc([C@]2(CCNCc3cccc(Cl)c3)CCO[C@]3(CCOC3)C2)nc1 [LPM3480392]
Organ weight, Heart [1]: 1.431 ± 0.112 g | Organ weight, Liver [1]: 9.943 ± 1.685 g | Organ weight, Spleen [1]: 0.774 ± 0.108 g | Organ weight, Thymus [1]: 0.470 ± 0.076 g | Organ-to-body weight ratio, Adrenal gland [1]: 0.013 ± 0.002% | Organ-to-body weight ratio, Brain [1]: 0.534 ± 0.040% | Organ-to-body weight ratio, Epididymis [1]: 0.338 ± 0.036% | Organ-to-body weight ratio, Heart [1]: 0.337 ± 0.020% | Organ-to-body weight ratio, Liver [1]: 2.327 ± 0.250% | Organ-to-body weight ratio, Spleen [1]: 0.182 ± 0.018% | Organ-to-body weight ratio, Thymus [1]: 0.110 ± 0.016% | Organ-to-brain weight ratio, Adrenal gland [1]: 2.52 ± 0.37% | Organ-to-brain weight ratio, Epididymis [1]: 63.42 ± 6.91% | Organ-to-brain weight ratio, Heart [1]: 63.29 ± 4.73% | Organ-to-brain weight ratio, Liver [1]: 441.01 ± 85.94% | Organ-to-brain weight ratio, Spleen [1]: 34.27 ± 5.33% | Organ-to-brain weight ratio, Thymus [1]: 20.83 ± 3.66% | Terminal BW [1]: 425.2 ± 26.4 g | Organ weight, Adrenal gland [2]: 0.052 ± 0.007 g | Organ weight, Brain [2]: 2.015 ± 0.137 g | Organ weight, Epididymis [2]: 1.020 ± 0.040 g | Organ weight, Heart [2]: 1.199 ± 0.140 g | Organ weight, Liver [2]: 7.643 ± 0.801 g | Organ weight, Spleen [2]: 0.703 ± 0.103 g | Organ weight, Thymus [2]: 0.425 ± 0.115 g | Organ-to-body weight ratio, Adrenal gland [2]: 0.017 ± 0.002% | Organ-to-body weight ratio, Brain [2]: 0.655 ± 0.040% | Organ-to-body weight ratio, Epididymis [2]: 0.332 ± 0.030% | Organ-to-body weight ratio, Heart [2]: 0.388 ± 0.025 % | Organ-to-body weight ratio, Liver [2]: 2.473 ± 0.100% | Organ-to-body weight ratio, Spleen [2]: 0.227 ± 0.026% | Organ-to-body weight ratio, Thymus [2]: 0.136 ± 0.028% | Organ-to-brain weight ratio, Adrenal gland [2]: 2.59 ± 0.37% | Organ-to-brain weight ratio, Epididymis [2]: 50.88 ± 4.79% | Organ-to-brain weight ratio, Heart [2]: 59.48 ± 5.54% | Organ-to-brain weight ratio, Liver [2]: 378.95 ± 25.83% | Organ-to-brain weight ratio, Spleen [2]: 35.01 ± 5.62% | Organ-to-brain weight ratio, Thymus [2]: 20.87 ± 4.42% | Terminal BW [2]: 308.5 ± 22.5 g | Organ weight, Adrenal gland [3]: 0.060 ± 0.010 g | Organ weight, Brain [3]: 2.177 ± 0.033 g | Organ weight, Epididymis [3]: 1.351 ± 0.094 g | Organ weight, Heart [3]: 1.483 ± 0.081 g | Organ weight, Liver [3]: 10.423 ± 1.077 g | Organ weight, Spleen [3]: 0.814 ± 0.089 g | Organ weight, Thymus [3]: 0.393 ± 0.042 g | Organ-to-body weight ratio, Adrenal gland [3]: 0.014 ± 0.003% | Organ-to-body weight ratio, Brain [3]: 0.514 ± 0.031% | Organ-to-body weight ratio, Epididymis [3]: 0.318 ± 0.010% | Organ-to-body weight ratio, Heart [3]: 0.349 ± 0.017% | Organ-to-body weight ratio, Liver [3]: 2.451 ± 0.149% | Organ-to-body weight ratio, Spleen [3]: 0.192 ± 0.022% | Organ-to-body weight ratio, Thymus [3]: 0.093 ± 0.013% | Organ-to-brain weight ratio, Adrenal gland [3]: 2.74 ± 0.50% | Organ-to-brain weight ratio, Epididymis [3]: 62.05 ± 4.34% | Organ-to-brain weight ratio, Heart [3]: 68.08 ± 3.40% | Organ-to-brain weight ratio, Liver [3]: 478.76 ± 49.84% | Organ-to-brain weight ratio, Spleen [3]: 37.41 ± 4.09% | Organ-to-brain weight ratio, Thymus [3]: 18.03 ± 1.83% | Terminal BW [3]: 424.6 ± 23.0 g | Organ weight, Adrenal gland [4]: 0.052 ± 0.004 g | Organ weight, Brain [4]: 2.031 ± 0.066 g | Organ weight, Epididymis [4]: 0.904 ± 0.104 g | Organ weight, Heart [4]: 1.172 ± 0.071 g | Organ weight, Liver [4]: 7.348 ± 0.497 g | Organ weight, Spleen [4]: 0.686 ± 0.129 g | Organ weight, Thymus [4]: 0.394 ± 0.075 g | Organ-to-body weight ratio, Adrenal gland [4]: 0.018 ± 0.002% | Organ-to-body weight ratio, Brain [4]: 0.689 ± 0.061% | Organ-to-body weight ratio, Epididymis [4]: 0.305 ± 0.028% | Organ-to-body weight ratio, Heart [4]: 0.397 ± 0.037 % | Organ-to-body weight ratio, Liver [4]: 2.487 ± 0.195% | Organ-to-body weight ratio, Spleen [4]: 0.231 ± 0.033% | Organ-to-body weight ratio, Thymus [4]: 0.132 ± 0.019% | Organ-to-brain weight ratio, Adrenal gland [4]: 2.59 ± 0.24% | Organ-to-brain weight ratio, Epididymis [4]: 44.58 ± 5.64 % | Organ-to-brain weight ratio, Heart [4]: 57.77 ± 3.83% | Organ-to-brain weight ratio, Liver [4]: 361.66 ± 16.84 % | Organ-to-brain weight ratio, Spleen [4]: 33.71 ± 5.76% | Organ-to-brain weight ratio, Thymus [4]: 19.36 ± 3.42% | Terminal BW [4]: 296.6 ± 24.2 g | Organ weight, Adrenal gland [5]: 0.055 ± 0.009 g | Organ weight, Brain [5]: 2.185 ± 0.147 g | Organ weight, Epididymis [5]: 1.239 ± 0.114 g | Organ weight, Heart [5]: 1.360 ± 0.262 g | Organ weight, Liver [5]: 9.451 ± 1.196 g | Organ weight, Spleen [5]: 0.775 ± 0.172 g | Organ weight, Thymus [5]: 0.386 ± 0.038 g | Organ-to-body weight ratio, Adrenal gland [5]: 0.014 ± 0.002% | Organ-to-body weight ratio, Brain [5]: 0.559 ± 0.076% | Organ-to-body weight ratio, Epididymis [5]: 0.315 ± 0.026% | Organ-to-body weight ratio, Heart [5]: 0.342 ± 0.024% | Organ-to-body weight ratio, Liver [5]: 2.391 ± 0.064% | Organ-to-body weight ratio, Spleen [5]: 0.194 ± 0.023% | Organ-to-body weight ratio, Thymus [5]: 0.099 ± 0.013% | Organ-to-brain weight ratio, Adrenal gland [5]: 2.55 ± 0.51% | Organ-to-brain weight ratio, Epididymis [5]: 56.82 ± 5.54% | Organ-to-brain weight ratio, Heart [5]: 62.11 ± 10.37% | Organ-to-brain weight ratio, Liver [5]: 432.91 ± 49.50% | Organ-to-brain weight ratio, Spleen [5]: 35.31 ± 6.72% | Organ-to-brain weight ratio, Thymus [5]: 17.77 ± 2.29% | Terminal BW [5]: 395.7 ± 53.7 g
